Reference: patent EP0091185A2, “Berbane derivatives” (CHINOIN Gyogyszer és Vegyészeti Termékek Gyára RT., priority 1982, dated 1983)

Tests used:
CFY strain male rats = test: Systolic blood pressure of non-anaesthetized rats, measured indirectly on the tail with a cuff; type: in vivo; conditions: for Blood pressure change related to the starting (control) value, 3rd hour / Blood pressure change related to the starting (control) value, 6th hour / Blood pressure change related to the starting (control) value, 12th hour / Blood pressure change related to the starting (control) value, 18th hour / Blood pressure change related to the starting (control) value, 24th hour / Blood pressure change related to the starting (control) value, 48th hour: n 5; for dose achieving hypotension of approximately the same intensity and duration: comparison of reserpine and the racemic compound, i.p.
Description: The tests were carried. out on CFY strain male rats weighing 250-300 g. The systolic blood pressure was measured indirectly on the tails of the animals pressed down with the aid. of a cuff. […] The systolic blood pressure was determined by observing simultaneously the manometer and the out-signal.

CFLP strain female mice = conditions: mouse, in vivo
Description: These tests were carried out on CFLP strain female mice weighing 20-25 g by the rotating rod method [A. Kovach: Testing methods of experimental medical sciences - A kisérletes orvostudomany vizsgáló m6dszerei - Akad6mia kiad6, Budapest, VI. 232-233, 1962)].

[1] = system: male rats weighing 300 and having hypertension; test: Systolic blood pressure decrease by the optically active enantiomers in hypertensive rats; type: in vivo; conditions: intraperitoneal 20 mg/kg, sixth hour following administration (maximum of the effect)
Description: The tests were carried. out on CFY strain male rats weighing 250-300 g. The systolic blood pressure was measured indirectly on the tails of the animals pressed down with the aid. of a cuff. When the pressure of the pressing cuff attached to a mercury manometer decreased just under the systolic pressure, the sensing head of the measuring apparatus (VP 101 microphone adapted for this purpose and placed on the tails of the rats) signalled the appearence of arterial pulsation both in acustical and visual way (oscilloscope). The systolic blood pressure was determined by observing simultaneously the manometer and the out-signal. When administering the raoemic compound intraperitoneally in doses of 10 and. […] The characteristics of the hypotensive effect of reserpine used as control are substantially the same as those of the racemic compound; hypotension of approximately the same intensity and duration can be achieved by administering 2,5 mg/kg of reserpine and 20 mg/kg of the racemic compound, respectively.
The optically active enantiomers were administered in intraperitoneal doses of 20 mg/kg to male rats weighing 300 and having hypertension. […]

[2] = 10 mg/kg i.p., n 5, control 115 ± 2
[3] = 20 mg/kg i.p., n 5, control 116 ± 2
[4] = intraperitoneally 10 and 20 mg/kg
[5] = 2,5 mg/kg i.p., n 5, control 117 ± 2
[6] = 5,0 mg/kg i.p., n 5, control 118 ± 2

COC(=O)[C@H]1C(=O)[C@@H](OC(=O)c2cc(OC)c(OC)c(OC)c2)C[C@@H]2CN3CCc4cc5c(cc4[C@H]3C[C@@H]21)OCO5 (racemic) [SC-T 40, Racemic methyl-7,8-methylened.ioxy-15-(3,4,5--trimethoxy-benzoyloxy)-14-oxo-epiallo--berbane-13-carboxylate]
Blood pressure change related to the starting (control) value, 3rd hour (CFY strain male rats; 10 mg/kg i.p.): -4,23%
Blood pressure (Hgmm; x̄ ± S.E.) 3rd hour (CFY strain male rats; [2]): 110 ± 2 Hgmm
Blood pressure change related to the starting (control) value, 6th hour (CFY strain male rats; 10 mg/kg i.p.): -13,88%
Blood pressure (Hgmm; x̄ ± S.E.) 6th hour (CFY strain male rats; [2]): 99 ± 3 Hgmm
Blood pressure change related to the starting (control) value, 12th hour (CFY strain male rats; 10 mg/kg i.p.): -12,14%
Blood pressure (Hgmm; x̄ ± S.E.) 12th hour (CFY strain male rats; [2]): 101 ± 2 Hgmm
Blood pressure change related to the starting (control) value, 18th hour (CFY strain male rats; 10 mg/kg i.p.): -9,53%
Blood pressure (Hgmm; x̄ ± S.E.) 18th hour (CFY strain male rats; [2]): 104 ± 2 Hgmm
Blood pressure change related to the starting (control) value, 24th hour (CFY strain male rats; 10 mg/kg i.p.): -9,64%
Blood pressure (Hgmm; x̄ ± S.E.) 24th hour (CFY strain male rats; [2]): 104 ± 4 Hgmm
Blood pressure change related to the starting (control) value, 48th hour (CFY strain male rats; 10 mg/kg i.p.): -9,53%
Blood pressure (Hgmm; x̄ ± S.E.) 48th hour (CFY strain male rats; [2]): 104 ± 2 Hgmm
Blood pressure change related to the starting (control) value, 3rd hour (CFY strain male rats; 20 mg/kg i.p.): -7,98%
Blood pressure (Hgmm; x̄ ± S.E.) 3rd hour (CFY strain male rats; [3]): 107 ± 2 Hgmm
Blood pressure change related to the starting (control) value, 6th hour (CFY strain male rats; 20 mg/kg i.p.): -19,53%
Blood pressure (Hgmm; x̄ ± S.E.) 6th hour (CFY strain male rats; [3]): 93 ± 6 Hgmm
Blood pressure change related to the starting (control) value, 12th hour (CFY strain male rats; 20 mg/kg i.p.): -17,11%
Blood pressure (Hgmm; x̄ ± S.E.) 12th hour (CFY strain male rats; [3]): 96 ± 2 Hgmm
Blood pressure change related to the starting (control) value, 18th hour (CFY strain male rats; 20 mg/kg i.p.): -12,76%
Blood pressure (Hgmm; x̄ ± S.E.) 18th hour (CFY strain male rats; [3]): 101 ± 3 Hgmm
Blood pressure change related to the starting (control) value, 24th hour (CFY strain male rats; 20 mg/kg i.p.): -9,42%
Blood pressure (Hgmm; x̄ ± S.E.) 24th hour (CFY strain male rats; [3]): 105 ± 2 Hgmm
Blood pressure change related to the starting (control) value, 48th hour (CFY strain male rats; 20 mg/kg i.p.): -4,23%
Blood pressure (Hgmm; x̄ ± S.E.) 48th hour (CFY strain male rats; [3]): 111 ± 1 Hgmm
dose achieving hypotension of approximately the same intensity and duration (CFY strain male rats): 20 mg/kg
duration of the hypotensive effect (CFY strain male rats; [4]): still detected in the 48th hour
time at which the hypotensive effect reached its maximum (CFY strain male rats; [4]): sixth hour
hypotensive effect (CFY strain male rats; intraperitoneally 10 and 20 mg/kg, 3-6 hours after the administration): significant hypotensive effect
Time for which mice stayed on the rotating rod (average, n = 10) (CFLP strain female mice): 102 ± 12,0
effect on coordination (CFLP strain female mice): did not exhibit any effect on coordination

COC(=O)[C@H]1[C@H]2C[C@@H]3c4[nH]c5cc(OC)ccc5c4CCN3C[C@H]2C[C@@H](OC(=O)c2cc(OC)c(OC)c(OC)c2)[C@@H]1OC [RESERPINE, reserpine, reference compound]
Blood pressure change related to the starting (control) value, 3rd hour (CFY strain male rats; 2,5 mg/kg i.p.): -11,11%
Blood pressure (Hgmm; x̄ ± S.E.) 3rd hour (CFY strain male rats; [5]): 104 ± 2 Hgmm
Blood pressure change related to the starting (control) value, 6th hour (CFY strain male rats; 2,5 mg/kg i.p.): -18,8%
Blood pressure (Hgmm; x̄ ± S.E.) 6th hour (CFY strain male rats; [5]): 95 ± 2 Hgmm
Blood pressure change related to the starting (control) value, 12th hour (CFY strain male rats; 2,5 mg/kg i.p.): -9,4%
Blood pressure (Hgmm; x̄ ± S.E.) 12th hour (CFY strain male rats; [5]): 106 ± 2 Hgmm
Blood pressure change related to the starting (control) value, 18th hour (CFY strain male rats; 2,5 mg/kg i.p.): -12,82%
Blood pressure (Hgmm; x̄ ± S.E.) 18th hour (CFY strain male rats; [5]): 102 ± 1 Hgmm
Blood pressure change related to the starting (control) value, 24th hour (CFY strain male rats; 2,5 mg/kg i.p.): -10,26%
Blood pressure (Hgmm; x̄ ± S.E.) 24th hour (CFY strain male rats; [5]): 105 ± 3 Hgmm
Blood pressure change related to the starting (control) value, 48th hour (CFY strain male rats; 2,5 mg/kg i.p.): -6,48%
Blood pressure (Hgmm; x̄ ± S.E.) 48th hour (CFY strain male rats; [5]): 109 ± 2 Hgmm
Blood pressure change related to the starting (control) value, 3rd hour (CFY strain male rats; 5,0 mg/kg i.p.): -15,25%
Blood pressure (Hgmm; x̄ ± S.E.) 3rd hour (CFY strain male rats; [6]): 100 ± 5 Hgmm
Blood pressure change related to the starting (control) value, 6th hour (CFY strain male rats; 5,0 mg/kg i.p.): -19,49%
Blood pressure (Hgmm; x̄ ± S.E.) 6th hour (CFY strain male rats; [6]): 95 ± 7 Hgmm
Blood pressure change related to the starting (control) value, 12th hour (CFY strain male rats; 5,0 mg/kg i.p.): -13,56%
Blood pressure (Hgmm; x̄ ± S.E.) 12th hour (CFY strain male rats; [6]): 102 ± 1 Hgmm
Blood pressure change related to the starting (control) value, 18th hour (CFY strain male rats; 5,0 mg/kg i.p.): -8,47%
Blood pressure (Hgmm; x̄ ± S.E.) 18th hour (CFY strain male rats; [6]): 108 ± 2 Hgmm
Blood pressure change related to the starting (control) value, 24th hour (CFY strain male rats; 5,0 mg/kg i.p.): -10,17%
Blood pressure (Hgmm; x̄ ± S.E.) 24th hour (CFY strain male rats; [6]): 106 ± 3 Hgmm
Blood pressure change related to the starting (control) value, 48th hour (CFY strain male rats; 5,0 mg/kg i.p.): -5.93%
Blood pressure (Hgmm; x̄ ± S.E.) 48th hour (CFY strain male rats; [6]): 111 ± 2 Hgmm
dose achieving hypotension of approximately the same intensity and duration (CFY strain male rats): 2,5 mg/kg
Time for which mice stayed on the rotating rod (average, n = 10) (CFLP strain female mice): 9 ± 3,3
effect on coordination (CFLP strain female mice): roduced coordination to a very significatn extent

(+)-Methyl-7,8-methylenedioxy-15-(3,4,5--trimethoxy-benzoyloxy)-l4-oxo-epiallo--berbane-13-carboxylate [[(+), I]]
blood-pressure decrease (average, n = 6) [1]: 15,6 Hgmm

(-)-Methyl-7,8-methylenedioxy-15-(3,4,5--trimethoxy-benzoyloxy)-14-oxo-epiallo--berbane-13-carboxylate [[(-), I]]
blood-pressure decrease (average, n = 6) [1]: 14,8 Hgmm
